From patent US10654838B2, “Aminopyridine compounds useful as inhibitors of protein prenylation” (INSTITUT NATIONAL DE LA SANTE ET DE LA RECHERCHE MEDICALE …, priority 2014, dated 2020)

Legend:
HDJ2 = test: Western blot analysis of HDJ2 farnesylation; format: cell-based, human
HGPS MSCs [1] = test: Nuclear shape abnormalities (lamin A/C immunostaining); format: cell-based, human; conditions: 48 h, lamin A/C staining
Experimental: In the 4-steps protocol, cells were fixed in 4% paraformaldehyde (15 minutes, room temperature) before permeabilization and blocking in PBS supplemented with 0.1% triton X-100 and 1% BSA (Sigma-Aldrich, St. Louis, USA). Primary antibodies were incubated one hour at room temperature in blocking buffer. Antibodies included mouse anti-lamins A/C (clone JOL2, Millipore, Billerica, USA), rabbit anti-prelamin A (ANTOO45, Diatheva) and anti-Ki67 (clone Ki-S5, MAB4190, Millipore, Billerica, USA). Cells were stained with the species-specific fluorophore-conjugated secondary antibody (Invitrogen) (one hour, room temperature) and nuclei were visualized with Hoechst 33342.

HGPS MSCs [2] = test: Live cell imaging (cell density); format: cell-based, human; conditions: 7 days
Experimental: HGPS MSCs were seeded at 2500 cells per well in 96-well plates and cultivated during 7 days in presence of the drugs. Cell density was monitored using an IncuCyte ZOOM microscope (Essen Bioscience). Each value corresponds to the mean of cell densities of four pictures taken in three independent wells.

HMGCR = target: T1, HMGCR (Homo sapiens, UniProt P04035); test: HMGCR colorimetric activity assay; format: biochemical
T1 construct: oxidation of NADPH by the catalytic subunit of HMGCR in the presence of the substrate HMG CoA; purchased Sigma-Aldrich
T1 sequence (P04035 340-888 limits assumed): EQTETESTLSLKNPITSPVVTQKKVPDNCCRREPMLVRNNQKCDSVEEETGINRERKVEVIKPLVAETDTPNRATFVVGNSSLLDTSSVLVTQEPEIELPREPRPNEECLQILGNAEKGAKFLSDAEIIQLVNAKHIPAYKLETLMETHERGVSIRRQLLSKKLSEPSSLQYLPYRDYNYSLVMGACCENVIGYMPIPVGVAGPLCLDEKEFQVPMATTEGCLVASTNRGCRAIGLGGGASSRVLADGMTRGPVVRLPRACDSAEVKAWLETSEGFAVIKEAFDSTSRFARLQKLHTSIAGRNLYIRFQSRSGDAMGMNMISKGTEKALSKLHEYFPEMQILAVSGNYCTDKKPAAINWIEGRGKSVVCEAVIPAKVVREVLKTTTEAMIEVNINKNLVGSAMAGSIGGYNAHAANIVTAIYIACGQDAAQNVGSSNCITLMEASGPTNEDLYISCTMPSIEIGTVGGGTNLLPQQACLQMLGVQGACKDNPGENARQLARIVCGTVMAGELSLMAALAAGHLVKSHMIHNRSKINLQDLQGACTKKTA
Experimental: HMGCR activity was measured using GCoA Reductase Assay Kit (Sigma-Aldrich) according to the manufacturer's protocol. The assay is based on the spectrophotometric measurement of the decrease in absorbance at 340 nm, which represents the oxidation of NADPH by the catalytic subunit of HMGCR in the presence of the substrate HMG CoA.

## N#CC(c1ccccn1)c1ccnc(N2CCN(Cc3ccccc3F)CC2)n1 (stereo not shown) [Mono-AP1, {2-[4-(2-fluoro-benzyl)-piperazin-1-yl]-pyrimidin-4-yl}-pyridin-2-yl-acetonitrile]
HDJ2
  unfarnesylated form of HDJ2: increase of the unfarnesylated form of the protein
HGPS MSCs [1]
  rescue of nuclear shape abnormalities: restoring HGPS MSCs nuclear shape defects at levels not significantly different from the FTI tipifarnib
HGPS MSCs [2]
  cytostatic effect in long term live imaging cultures: less cytostatic than the FTI tipifarnib
HMGCR
  IC50 (μM) HMGCR: No inhibition
